From PubChem BioAssay (NCI)
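Five concentrations, 48 hours, 96-well plates. GI50 marks 50% less growth. TGI: total growth inhibition.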

Legend:
Experiment in all cases: DTP human tumour cell line panel, 48 h
786-0 renal = system: 786-0 renal
ACHN renal = system: ACHN renal
BT-549 breast = system: BT-549 breast
CAKI-1 renal = system: CAKI-1 renal
CCRF-CEM leukemia = system: CCRF-CEM leukemia
COLO 205 colon = system: COLO 205 colon
DU-145 prostate = system: DU-145 prostate
EKVX NSCLC = system: EKVX NSCLC
HCC-2998 colon = system: HCC-2998 colon
HCT-116 colon = system: HCT-116 colon
HCT-15 colon = system: HCT-15 colon
HOP-62 NSCLC = system: HOP-62 NSCLC
HOP-92 NSCLC = system: HOP-92 NSCLC
HS 578T breast = system: HS 578T breast
HT29 colon = system: HT29 colon
IGROV1 ovarian = system: IGROV1 ovarian
K-562 leukemia = system: K-562 leukemia
KM12 colon = system: KM12 colon
LOX IMVI melanoma = system: LOX IMVI melanoma
M14 melanoma = system: M14 melanoma
MALME-3M melanoma = system: MALME-3M melanoma
MCF7 breast = system: MCF7 breast
MDA-MB-231 breast = system: MDA-MB-231 breast
MDA-MB-435 = system: MDA-MB-435
MOLT-4 leukemia = system: MOLT-4 leukemia
NCI-H226 lung = system: NCI-H226 lung
NCI-H23 lung = system: NCI-H23 lung
NCI/ADR-RES ovarian = system: NCI/ADR-RES ovarian
OVCAR-3 ovarian = system: OVCAR-3 ovarian
OVCAR-4 ovarian = system: OVCAR-4 ovarian
OVCAR-5 ovarian = system: OVCAR-5 ovarian
OVCAR-8 ovarian = system: OVCAR-8 ovarian
PC-3 prostate = system: PC-3 prostate
RPMI-8226 leukemia = system: RPMI-8226 leukemia
RXF 393 renal = system: RXF 393 renal
SF-268 CNS = system: SF-268 CNS
SF-295 CNS = system: SF-295 CNS
SF-539 CNS = system: SF-539 CNS
SK-MEL-28 melanoma = system: SK-MEL-28 melanoma
SK-MEL-5 melanoma = system: SK-MEL-5 melanoma
SN12C renal = system: SN12C renal
SNB-19 CNS = system: SNB-19 CNS
SNB-75 CNS = system: SNB-75 CNS
SR leukemia = system: SR leukemia
T-47D breast = system: T-47D breast
U251 CNS = system: U251 CNS
UACC-257 melanoma = system: UACC-257 melanoma
UACC-62 melanoma = system: UACC-62 melanoma

How did the TGI (786-0 renal) turn out when `N#Cc1c(N)n(C2OC(CO)C(O)C2O)c2ncnc(N)c12` (centres undefined) was run?
The TGI was 5.55 µM.

And the TGI (ACHN renal)?
Its TGI is 417 nM.

And the TGI (BT-549 breast)?
Its TGI is 2130 nM.

What about the TGI (CAKI-1 renal) of the same molecule?
The TGI was 263 nM.

What about the TGI (CCRF-CEM leukemia) of the same molecule?
The TGI was 1340 nM.

What about the TGI (COLO 205 colon) of the same molecule?
The TGI was 191 nM.

What about the TGI (DU-145 prostate) of the same molecule?
Its TGI is > 17.4 µM.

What about the TGI (EKVX NSCLC) of the same molecule?
Its TGI is > 100 µM.

And the GI50 (HCC-2998 colon)?
The GI50 was 145 nM.

And the TGI (HCC-2998 colon)?
Its TGI is 509 nM.

And the TGI (HCT-116 colon)?
Its TGI is > 7.59 µM.

And the TGI (HCT-15 colon)?
Its TGI is 164 nM.

And the TGI (HOP-62 NSCLC)?
Its TGI is 2390 nM.

What about the TGI (HOP-92 NSCLC) of the same molecule?
The TGI was > 100 µM.

And the TGI (HS 578T breast)?
The TGI was 2160 nM.

What about the TGI (HT29 colon) of the same molecule?
Its TGI is > 100 µM.

And the TGI (IGROV1 ovarian)?
The TGI was > 100 µM.

And the TGI (K-562 leukemia)?
Its TGI is > 20.2 µM.

And the TGI (KM12 colon)?
The TGI was 1980 nM.

What about the TGI (LOX IMVI melanoma) of the same molecule?
The TGI was 59.5 nM.

And the TGI (M14 melanoma)?
Its TGI is 265 nM.

What about the TGI (MALME-3M melanoma) of the same molecule?
Its TGI is 161 nM.

What about the TGI (MCF7 breast) of the same molecule?
The TGI was 1210 nM.

What about the TGI (MDA-MB-231 breast) of the same molecule?
The TGI was > 8.22 µM.

And the TGI (MDA-MB-435)?
The TGI was 89.1 nM.

What about the TGI (MOLT-4 leukemia) of the same molecule?
The TGI was 163 nM.

What about the TGI (NCI-H226 lung) of the same molecule?
The TGI was 372 nM.

What about the TGI (NCI-H23 lung) of the same molecule?
The TGI was 206 nM.

What about the TGI (NCI/ADR-RES ovarian) of the same molecule?
Its TGI is 137 nM.

And the TGI (OVCAR-3 ovarian)?
Its TGI is 156 nM.

And the TGI (OVCAR-4 ovarian)?
Its TGI is > 100 µM.

And the TGI (OVCAR-5 ovarian)?
The TGI was 3.28 µM.

What about the TGI (OVCAR-8 ovarian) of the same molecule?
Its TGI is 279 nM.

And the TGI (PC-3 prostate)?
The TGI was 578 nM.

And the TGI (RPMI-8226 leukemia)?
Its TGI is 3.59 µM.

And the TGI (RXF 393 renal)?
Its TGI is 1330 nM.

And the TGI (SF-268 CNS)?
Its TGI is 1810 nM.

What about the TGI (SF-295 CNS) of the same molecule?
Its TGI is 2450 nM.

And the TGI (SF-539 CNS)?
The TGI was 417 nM.

And the TGI (SK-MEL-28 melanoma)?
The TGI was 432 nM.

And the TGI (SK-MEL-5 melanoma)?
The TGI was 279 nM.

What about the TGI (SN12C renal) of the same molecule?
Its TGI is 856 nM.

And the TGI (SNB-19 CNS)?
Its TGI is > 84.2 µM.

What about the TGI (SNB-75 CNS) of the same molecule?
Its TGI is 3.56 µM.

What about the TGI (SR leukemia) of the same molecule?
The TGI was 47.4 nM.

What about the TGI (T-47D breast) of the same molecule?
Its TGI is 221 nM.

And the TGI (U251 CNS)?
The TGI was > 78.2 µM.

And the TGI (UACC-257 melanoma)?
The TGI was 574 nM.

What about the TGI (UACC-62 melanoma) of the same molecule?
The TGI was 94.1 nM.
